Results: patent publication US20240246942A1, “KINASE INHIBITORS FOR THE TREATMENT OF NEURODEGENERATIVE DISEASES” (priority 2020, published 2024)

Columns and labels:
Test in all cases: biochemical
[1] = target: T1, panel of 374 wild-type kinases (Homo sapiens, UniProt P49336); details: read-out: % Enzyme Activity (relative to DMSO controls), CDK8/cyclin C
T1 construct: purchased Reaction Biology Corporation

[2] = target: T2, panel of 374 wild-type kinases (Homo sapiens, UniProt O00444); details: read-out: % Enzyme Activity (relative to DMSO controls), kinase PLK4/SAK
T2 construct: purchased Reaction Biology Corporation
T2 sequence (O00444 1-970): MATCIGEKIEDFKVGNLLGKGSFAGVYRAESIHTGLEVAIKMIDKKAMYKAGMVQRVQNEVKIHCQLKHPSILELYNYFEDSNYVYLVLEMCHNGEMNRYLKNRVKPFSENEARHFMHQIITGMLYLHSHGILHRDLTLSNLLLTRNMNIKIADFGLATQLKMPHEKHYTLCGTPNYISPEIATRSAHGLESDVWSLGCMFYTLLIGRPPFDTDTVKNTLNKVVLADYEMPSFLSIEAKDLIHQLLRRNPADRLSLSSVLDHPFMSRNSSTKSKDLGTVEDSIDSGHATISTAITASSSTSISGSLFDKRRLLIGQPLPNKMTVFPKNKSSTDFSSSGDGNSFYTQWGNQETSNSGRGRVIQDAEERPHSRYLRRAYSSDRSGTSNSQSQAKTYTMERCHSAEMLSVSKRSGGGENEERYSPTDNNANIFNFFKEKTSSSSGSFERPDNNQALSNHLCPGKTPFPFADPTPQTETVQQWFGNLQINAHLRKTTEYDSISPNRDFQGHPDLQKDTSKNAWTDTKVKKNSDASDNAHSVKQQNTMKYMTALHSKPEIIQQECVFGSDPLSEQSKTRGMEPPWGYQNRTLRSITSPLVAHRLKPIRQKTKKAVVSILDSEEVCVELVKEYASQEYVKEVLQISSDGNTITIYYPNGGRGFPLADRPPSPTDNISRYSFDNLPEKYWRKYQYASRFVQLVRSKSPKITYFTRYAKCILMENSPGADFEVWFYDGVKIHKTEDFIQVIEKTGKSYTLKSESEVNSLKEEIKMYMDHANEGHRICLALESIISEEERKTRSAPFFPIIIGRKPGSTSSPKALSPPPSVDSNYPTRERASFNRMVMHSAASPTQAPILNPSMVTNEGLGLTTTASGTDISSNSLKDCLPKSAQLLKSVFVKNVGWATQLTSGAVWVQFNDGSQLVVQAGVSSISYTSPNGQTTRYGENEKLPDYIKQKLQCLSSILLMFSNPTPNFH

[3] = target: T3, panel of 374 wild-type kinases (Homo sapiens, UniProt Q8N5S9); details: read-out: % Enzyme Activity (relative to DMSO controls), CAMKK1
T3 construct: purchased Reaction Biology Corporation

[4] = target: T4, panel of 374 wild-type kinases (Homo sapiens, UniProt Q9P1W9); details: read-out: % Enzyme Activity (relative to DMSO controls), kinase PIM2
T4 construct: purchased Reaction Biology Corporation

[5] = target: T5, panel of 374 wild-type kinases (Homo sapiens, UniProt Q12851); details: read-out: % Enzyme Activity (relative to DMSO controls), GCK/MAP4K2
T5 construct: purchased Reaction Biology Corporation
T5 sequence (Q12851 1-820): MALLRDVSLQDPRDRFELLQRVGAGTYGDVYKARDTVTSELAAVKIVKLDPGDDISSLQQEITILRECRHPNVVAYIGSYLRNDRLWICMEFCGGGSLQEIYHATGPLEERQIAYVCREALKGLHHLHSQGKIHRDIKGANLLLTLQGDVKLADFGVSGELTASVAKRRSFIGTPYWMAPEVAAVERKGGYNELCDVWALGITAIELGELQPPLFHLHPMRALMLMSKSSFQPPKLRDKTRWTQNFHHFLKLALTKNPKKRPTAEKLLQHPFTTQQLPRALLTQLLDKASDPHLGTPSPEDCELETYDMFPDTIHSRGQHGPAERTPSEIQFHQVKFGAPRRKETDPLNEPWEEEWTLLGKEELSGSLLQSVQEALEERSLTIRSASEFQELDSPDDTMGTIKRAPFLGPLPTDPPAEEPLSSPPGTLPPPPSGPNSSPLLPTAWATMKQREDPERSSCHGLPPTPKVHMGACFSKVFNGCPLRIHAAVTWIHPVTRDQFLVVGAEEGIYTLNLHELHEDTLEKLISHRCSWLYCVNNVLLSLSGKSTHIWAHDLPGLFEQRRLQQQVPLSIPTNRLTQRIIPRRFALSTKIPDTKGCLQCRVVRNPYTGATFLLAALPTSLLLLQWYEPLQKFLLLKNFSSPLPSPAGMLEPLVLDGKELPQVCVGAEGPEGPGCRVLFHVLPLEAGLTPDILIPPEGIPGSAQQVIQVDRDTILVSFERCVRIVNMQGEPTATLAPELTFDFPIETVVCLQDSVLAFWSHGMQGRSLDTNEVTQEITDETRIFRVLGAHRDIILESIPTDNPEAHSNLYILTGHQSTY

[6] = target: T6, panel of 374 wild-type kinases (Homo sapiens, UniProt Q32MK0); details: read-out: % Enzyme Activity (relative to DMSO controls), MYLK3
T6 construct: purchased Reaction Biology Corporation
T6 sequence (Q32MK0 1-819): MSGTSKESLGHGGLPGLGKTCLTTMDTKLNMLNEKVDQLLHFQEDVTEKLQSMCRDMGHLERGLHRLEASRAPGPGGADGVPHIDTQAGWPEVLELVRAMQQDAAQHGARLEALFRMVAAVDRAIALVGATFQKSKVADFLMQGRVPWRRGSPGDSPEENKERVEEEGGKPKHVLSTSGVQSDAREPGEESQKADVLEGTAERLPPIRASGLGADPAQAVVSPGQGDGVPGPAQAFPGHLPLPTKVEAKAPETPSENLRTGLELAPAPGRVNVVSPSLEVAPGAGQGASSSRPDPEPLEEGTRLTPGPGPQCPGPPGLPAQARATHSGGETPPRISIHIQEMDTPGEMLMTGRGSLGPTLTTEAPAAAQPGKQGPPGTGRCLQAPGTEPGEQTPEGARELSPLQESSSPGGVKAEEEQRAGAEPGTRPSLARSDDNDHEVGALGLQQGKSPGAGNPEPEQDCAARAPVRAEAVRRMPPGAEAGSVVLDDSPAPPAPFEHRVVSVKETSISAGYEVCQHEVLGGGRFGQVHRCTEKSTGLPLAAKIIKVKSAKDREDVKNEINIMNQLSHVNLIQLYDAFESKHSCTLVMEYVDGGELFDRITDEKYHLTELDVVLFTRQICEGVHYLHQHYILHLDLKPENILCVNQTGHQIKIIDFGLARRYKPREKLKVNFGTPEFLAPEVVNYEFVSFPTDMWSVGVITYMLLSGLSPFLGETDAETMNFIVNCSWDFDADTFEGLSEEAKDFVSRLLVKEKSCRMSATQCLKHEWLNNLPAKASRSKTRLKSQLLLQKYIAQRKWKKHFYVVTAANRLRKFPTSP

T3 sequence (Q8N5S9 whole entry): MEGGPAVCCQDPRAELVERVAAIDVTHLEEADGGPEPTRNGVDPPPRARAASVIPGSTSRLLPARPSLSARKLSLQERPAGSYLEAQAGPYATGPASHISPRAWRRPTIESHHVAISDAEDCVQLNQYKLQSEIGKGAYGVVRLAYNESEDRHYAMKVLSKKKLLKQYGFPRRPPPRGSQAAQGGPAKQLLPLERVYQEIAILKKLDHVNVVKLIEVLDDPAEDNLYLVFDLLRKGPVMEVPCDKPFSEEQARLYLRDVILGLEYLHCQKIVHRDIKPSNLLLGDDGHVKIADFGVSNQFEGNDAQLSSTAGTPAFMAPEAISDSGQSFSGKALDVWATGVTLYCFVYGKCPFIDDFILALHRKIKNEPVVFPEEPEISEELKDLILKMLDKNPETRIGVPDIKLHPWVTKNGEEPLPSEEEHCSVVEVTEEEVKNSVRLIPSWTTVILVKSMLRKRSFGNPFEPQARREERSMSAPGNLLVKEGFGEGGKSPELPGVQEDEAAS
T4 sequence (Q9P1W9 whole entry): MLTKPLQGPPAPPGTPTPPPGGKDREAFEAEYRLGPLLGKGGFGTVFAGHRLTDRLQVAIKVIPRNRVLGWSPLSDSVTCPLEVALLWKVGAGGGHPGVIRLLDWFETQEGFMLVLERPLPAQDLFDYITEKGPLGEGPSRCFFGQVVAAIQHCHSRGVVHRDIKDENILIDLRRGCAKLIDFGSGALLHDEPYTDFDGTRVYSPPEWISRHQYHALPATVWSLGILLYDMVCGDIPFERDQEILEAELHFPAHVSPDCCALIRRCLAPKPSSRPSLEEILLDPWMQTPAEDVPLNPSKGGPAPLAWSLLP
T1 sequence (P49336 whole entry): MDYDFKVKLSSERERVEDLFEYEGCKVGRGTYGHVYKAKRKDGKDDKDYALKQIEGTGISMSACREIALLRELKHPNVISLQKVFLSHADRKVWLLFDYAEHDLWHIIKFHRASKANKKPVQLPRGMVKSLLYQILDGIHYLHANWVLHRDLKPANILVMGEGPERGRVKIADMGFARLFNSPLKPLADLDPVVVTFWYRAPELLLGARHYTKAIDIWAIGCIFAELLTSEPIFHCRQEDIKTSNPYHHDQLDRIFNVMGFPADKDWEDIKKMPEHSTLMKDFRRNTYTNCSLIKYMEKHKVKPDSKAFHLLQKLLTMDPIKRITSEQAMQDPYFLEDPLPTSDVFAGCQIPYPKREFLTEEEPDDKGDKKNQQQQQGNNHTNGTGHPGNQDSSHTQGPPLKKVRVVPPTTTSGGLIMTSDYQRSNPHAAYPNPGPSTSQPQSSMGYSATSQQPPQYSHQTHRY

| Structure (SMILES) | remaining activity at 5 µM [1] | remaining activity at 5 µM [2] | remaining activity at 5 µM [3] | remaining activity at 5 µM [4] | remaining activity at 5 µM [5] | remaining activity at 5 µM [6] | remaining activity at 10 µM ([1]; 10 uM) | remaining activity at 10 µM ([2]; 10 uM) | remaining activity at 10 µM ([3]; 10 uM) | remaining activity at 10 µM ([4]; 10 uM) | remaining activity at 10 µM ([5]; 10 uM) | remaining activity at 10 µM ([6]; 10 uM) |
| --- | --- | --- | --- | --- | --- | --- | --- | --- | --- | --- | --- | --- |
| O=C(Nc1cnn(-c2csc(C(=O)NC3COC3)c2)c1)Nc1ccccc1Cl [Compound 17, 4-(4-(3-(2-chlorophenyl)ureido)-1H-pyrazol-1-yl)-N-(oxetan-3-yl)thiophene-2-carboxamide] | 101% | 88.2% | 130% | 96.4% | 105% | 95.1% |  |  |  |  |  |  |
| O=C(Nc1cnn(-c2csc(C(=O)NC3COC3)c2)c1)Nc1c(F)cccc1Cl [Compound 25, 4-(4-(3-(2-chloro-6-fluorophenyl)ureido)-1H-pyrazol-1-yl)-N-(oxetan-3-yl)thiophene-2-carboxamide] | 99% | 84.3% | 93.7% | 129% | 95.3% | 102% |  |  |  |  |  |  |
| Cc1sc(C(=O)NC2COC2)cc1-n1cc(NC(=O)Nc2c(F)cccc2Cl)cn1 [Compound 27, 4-(4-(3-(2-chloro-6-fluorophenyl)ureido)-1H-pyrazol-1-yl)-5-methyl-N-(oxetan-3-yl)thiophene-2-carboxamide] |  |  |  |  |  |  | 92.7% | 100% | 121% | 96.5% | 90.2% | 112% |
